{"source": "patent US10105357B2", "about": "“Indication of antibiotic drugs for preparation of cancer inhibition pharmaceutical composition” (LAUNX BIOMEDICAL CO., LTD., priority 2014, dated 2018)", "key": {"[1]": {"system": "A549 (Lung Adenocarcinoma)", "experiment": "Cell viability analysis, lung cancer A549", "type": "cell-based, human", "settings": "repeated experiment"}, "[2]": {"system": "MKN-45 (Gastric Adenocarcinoma)", "experiment": "Cell viability analysis, gastric cancer MKN-45", "type": "cell-based, human"}, "[3]": {"system": "MCF7 (Mammary Gland, Adenocarcinoma)", "experiment": "Cell viability analysis, breast cancer MCF7", "type": "cell-based, human", "settings": "repeated experiment"}, "[4]": {"system": "AGS (Gastric Adenocarcinoma)", "experiment": "Cell viability analysis, gastric cancer AGS", "type": "cell-based, human", "settings": "repeated experiment"}, "[5]": {"system": "T24", "experiment": "Cell viability analysis, bladder cancer T24", "type": "cell-based, human"}, "[6]": {"system": "MDA-MB-231 (Mammary Gland, Adenocarcinoma)", "experiment": "Cell viability analysis, breast cancer MDA-MB-231", "type": "cell-based, human"}, "[7]": {"system": "HeLa (Cervix Adenocarcinoma)", "experiment": "Cell viability analysis, cervical cancer HeLa", "type": "cell-based, human", "settings": "HeLa, repeated experiment"}, "[8]": {"system": "A375 (Amelanotic Melanoma)", "experiment": "Cell viability analysis, skin cancer A375", "type": "cell-based, human", "settings": "repeated experiment"}, "[9]": {"system": "HI650 (Lung Adenocarcinoma)", "experiment": "Cell viability analysis, lung cancer HI650", "type": "cell-based, human", "settings": "repeated experiment"}, "[10]": {"system": "HCT116 (p53+) (Colorectal Carcinoma)"}, "[11]": {"system": "786-O (Renal adenocarcinoma)", "experiment": "Cell viability analysis, renal cancer 786-O", "type": "cell-based, human"}, "[12]": {"system": "BCC (basal cell carcinoma)", "experiment": "Cell viability analysis, skin cancer BCC", "type": "cell-based, human"}, "[13]": {"system": "TOV-21G", "experiment": "Cell viability analysis, ovarian cancer TOV-21G", "type": "cell-based, human"}, "[14]": {"system": "U-2OS", "experiment": "Cell viability analysis, osteosarcoma U-2OS", "type": "cell-based, human", "settings": "U2OS"}, "[15]": {"system": "BxPC-3", "experiment": "Cell viability analysis, pancreatic cancer BxPC-3", "type": "cell-based, human"}, "[16]": {"system": "LoVo (Colorectal Adenocarcinoma)", "experiment": "Cell viability analysis, colon cancer LoVo", "type": "cell-based, human", "settings": "LoVo, repeated experiment"}, "[17]": {"system": "C-33A (Cervical carcinoma)", "experiment": "Cell viability analysis, cervical cancer C-33A", "type": "cell-based, human"}, "[18]": {"system": "Hep3B (hepatocellular carcinoma)", "experiment": "Cell viability analysis, hepatic cancer Hep3B", "type": "cell-based, human", "settings": "Hep3B"}, "[19]": {"system": "SAS (Tongue squamous cell carcinoma)", "experiment": "Cell viability analysis, tongue cancer SAS", "type": "cell-based, human"}, "[20]": {"system": "AsPC-1", "experiment": "Cell viability analysis, pancreatic cancer AsPC-1", "type": "cell-based, human"}, "[21]": {"system": "TSGH-8301 (Urinary Bladder Carcinoma)", "experiment": "Cell viability analysis, bladder cancer TSGH-8301", "type": "cell-based, human", "settings": "repeated experiment"}, "[22]": {"system": "NIH: OVCAR-3", "experiment": "Cell viability analysis, ovarian cancer NIH: OVCAR-3", "type": "cell-based, human"}, "[23]": {"system": "HepG2 (Hepatocellular Carcinoma)", "experiment": "Cell viability analysis, hepatic cancer HepG2", "type": "cell-based, human", "settings": "repeated experiment"}, "[24]": {"system": "PC3 (p53−) (Prostate Adenocarcinoma)", "experiment": "Cell viability analysis, prostate cancer PC3", "type": "cell-based, human"}}}
{"compound": "CCCOc1ccc2nc(NC(=O)OC)[nH]c2c1", "note": "[Oxibendazole]", "values": [{"measurement": "viability at 10 µM", "setting": "[1]; Homo sapiens, A549, 72 h, read-out: The results of antibiotic drug inhibiting cancer cell lines (cell viability analysis), A549, A549", "value": 24, "unit": "%"}, {"measurement": "viability at 10 µM", "setting": "[2]; Homo sapiens, MKN-45, 72 h, read-out: The results of antibiotic drug inhibiting cancer cell lines (cell viability analysis), MKN-45, MKN-45, repeated experiment", "value": 65.6, "unit": "%"}, {"measurement": "viability at 10 µM", "setting": "[3]; Homo sapiens, MCF7, 72 h, read-out: The results of antibiotic drug inhibiting cancer cell lines (cell viability analysis), MCF-7, MCF-7", "value": 60.9, "unit": "%"}, {"measurement": "viability at 10 µM", "setting": "[4]; Homo sapiens, 72 h, read-out: The results of antibiotic drug inhibiting cancer cell lines (cell viability analysis), AGS", "value": 37.6, "unit": "%"}, {"measurement": "viability at 10 µM", "setting": "[5]; Homo sapiens, T-24, 72 h, read-out: The results of antibiotic drug inhibiting cancer cell lines (cell viability analysis), T24", "value": 38.1, "unit": "%"}, {"measurement": "viability at 10 µM", "setting": "[6]; Homo sapiens, MDA-MB-231, 72 h, read-out: The results of antibiotic drug inhibiting cancer cell lines (cell viability analysis), MDA-MB231", "value": 48.9, "unit": "%"}, {"measurement": "viability at 10 µM", "setting": "[7]; Homo sapiens, 72 h, read-out: The results of antibiotic drug inhibiting cancer cell lines (cell viability analysis), HeLa", "value": 29.3, "unit": "%"}, {"measurement": "viability at 10 µM", "setting": "[8]; Homo sapiens, A-375, 72 h, read-out: The results of antibiotic drug inhibiting cancer cell lines (cell viability analysis), A375, A375", "value": 31.8, "unit": "%"}, {"measurement": "viability at 10 µM", "setting": "[9]; Homo sapiens, NCI-H1650, 72 h, read-out: The results of antibiotic drug inhibiting cancer cell lines (cell viability analysis), H1650, H1650", "value": 41.3, "unit": "%"}, {"measurement": "viability", "setting": "[10]", "value": 22.1, "unit": "%"}, {"measurement": "viability at 10 µM", "setting": "[11]; Homo sapiens, 786-0, 72 h, read-out: The results of antibiotic drug inhibiting cancer cell lines (cell viability analysis), 786-O", "value": 18.5, "unit": "%"}, {"measurement": "viability at 10 µM", "setting": "[12]; Homo sapiens, 72 h, read-out: The results of antibiotic drug inhibiting cancer cell lines (cell viability analysis), BCC", "value": 34.3, "unit": "%"}, {"measurement": "viability at 10 µM", "setting": "[13]; Homo sapiens, TOV21G, 72 h, read-out: The results of antibiotic drug inhibiting cancer cell lines (cell viability analysis), TOV-21G", "value": 26.6, "unit": "%"}, {"measurement": "viability at 10 µM", "setting": "[14]; Homo sapiens, 72 h, read-out: The results of antibiotic drug inhibiting cancer cell lines (cell viability analysis), U2OS", "value": 46.6, "unit": "%"}, {"measurement": "viability at 10 µM", "setting": "[15]; Homo sapiens, BXPC-3, 72 h, read-out: The results of antibiotic drug inhibiting cancer cell lines (cell viability analysis), BxPC-3", "value": 29.1, "unit": "%"}, {"measurement": "viability at 10 µM", "setting": "[16]; Homo sapiens, 72 h, read-out: The results of antibiotic drug inhibiting cancer cell lines (cell viability analysis), LoVo", "value": 53.4, "unit": "%"}, {"measurement": "viability at 10 µM", "setting": "[17]; Homo sapiens, C-33-A, 72 h, read-out: The results of antibiotic drug inhibiting cancer cell lines (cell viability analysis), C-33A", "value": 47.8, "unit": "%"}, {"measurement": "viability at 10 µM", "setting": "[18]; Homo sapiens, 72 h, read-out: The results of antibiotic drug inhibiting cancer cell lines (cell viability analysis), Hep3B", "value": 59.8, "unit": "%"}, {"measurement": "viability at 10 µM", "setting": "[19]; Homo sapiens, 72 h, read-out: The results of antibiotic drug inhibiting cancer cell lines (cell viability analysis), SAS", "value": 41.2, "unit": "%"}, {"measurement": "viability at 10 µM", "setting": "[20]; Homo sapiens, ASPC1, 72 h, read-out: The results of antibiotic drug inhibiting cancer cell lines (cell viability analysis), AsPC-1", "value": 33, "unit": "%"}, {"measurement": "viability at 10 µM", "setting": "[21]; Homo sapiens, 72 h, read-out: The results of antibiotic drug inhibiting cancer cell lines (cell viability analysis), TSGH-8301, TSGH-8301", "value": 48.6, "unit": "%"}, {"measurement": "viability at 10 µM", "setting": "[22]; Homo sapiens, OVCAR-3, 72 h, read-out: The results of antibiotic drug inhibiting cancer cell lines (cell viability analysis), NIH-OVCAR-3", "value": 54.8, "unit": "%"}, {"measurement": "viability at 10 µM", "setting": "[23]; Homo sapiens, HepG2, 72 h, read-out: The results of antibiotic drug inhibiting cancer cell lines (cell viability analysis), HepG2, HepG2", "value": 64.5, "unit": "%"}, {"measurement": "viability at 10 µM", "setting": "[24]; Homo sapiens, 72 h, read-out: The results of antibiotic drug inhibiting cancer cell lines (cell viability analysis), PC-3, PC-3, repeated experiment", "value": 38.9, "unit": "%"}]}
{"compound": "COC(=O)Nc1nc2cc(C(=O)c3ccc(F)cc3)ccc2[nH]1", "note": "[Flubendazole (Flutelmium)]", "values": [{"measurement": "The results of antibiotic drug inhibiting cancer cell lines (cell viability analysis), A549", "setting": "[1]; A549", "value": 22.71}, {"measurement": "The results of antibiotic drug inhibiting cancer cell lines (cell viability analysis), MKN-45", "setting": "[2]", "value": 63.06}, {"measurement": "The results of antibiotic drug inhibiting cancer cell lines (cell viability analysis), MCF-7", "setting": "[3]; MCF-7", "value": 55.01}, {"measurement": "The results of antibiotic drug inhibiting cancer cell lines (cell viability analysis), AGS", "setting": "[4]; AGS", "value": 28.25}, {"measurement": "The results of antibiotic drug inhibiting cancer cell lines (cell viability analysis), T24", "setting": "[5]; T24, repeated experiment", "value": 34.67}, {"measurement": "The results of antibiotic drug inhibiting cancer cell lines (cell viability analysis), MDA-MB231", "setting": "[6]; MDA-MB231, repeated experiment", "value": 43.43}, {"measurement": "The results of antibiotic drug inhibiting cancer cell lines (cell viability analysis), HeLa", "setting": "[7]", "value": 25.78}, {"measurement": "The results of antibiotic drug inhibiting cancer cell lines (cell viability analysis), A375", "setting": "[8]; A375", "value": 30.32}, {"measurement": "The results of antibiotic drug inhibiting cancer cell lines (cell viability analysis), H1650", "setting": "[9]; H1650", "value": 35.69}, {"measurement": "The results of antibiotic drug inhibiting cancer cell lines (cell viability analysis), HCT116", "setting": "[10]", "value": 20.63}, {"measurement": "The results of antibiotic drug inhibiting cancer cell lines (cell viability analysis), 786-O", "setting": "[11]; 786-O, repeated experiment", "value": 20.97}, {"measurement": "The results of antibiotic drug inhibiting cancer cell lines (cell viability analysis), BCC", "setting": "[12]; BCC, repeated experiment", "value": 31.79}, {"measurement": "The results of antibiotic drug inhibiting cancer cell lines (cell viability analysis), TOV-21G", "setting": "[13]; TOV-21G, repeated experiment", "value": 24.84}, {"measurement": "The results of antibiotic drug inhibiting cancer cell lines (cell viability analysis), U2OS", "setting": "[14]; repeated experiment", "value": 48.74}, {"measurement": "The results of antibiotic drug inhibiting cancer cell lines (cell viability analysis), BxPC-3", "setting": "[15]; BxPC-3, repeated experiment", "value": 32.76}, {"measurement": "The results of antibiotic drug inhibiting cancer cell lines (cell viability analysis), LoVo", "setting": "[16]", "value": 53.35}, {"measurement": "The results of antibiotic drug inhibiting cancer cell lines (cell viability analysis), C-33A", "setting": "[17]; C-33A, repeated experiment", "value": 46.4}, {"measurement": "The results of antibiotic drug inhibiting cancer cell lines (cell viability analysis), Hep3B", "setting": "[18]; repeated experiment", "value": 56.93}, {"measurement": "The results of antibiotic drug inhibiting cancer cell lines (cell viability analysis), SAS", "setting": "[19]; SAS, repeated experiment", "value": 45.16}, {"measurement": "The results of antibiotic drug inhibiting cancer cell lines (cell viability analysis), AsPC-1", "setting": "[20]; AsPC-1, repeated experiment", "value": 35.53}, {"measurement": "The results of antibiotic drug inhibiting cancer cell lines (cell viability analysis), TSGH-8301", "setting": "[21]; TSGH-8301", "value": 45.64}, {"measurement": "The results of antibiotic drug inhibiting cancer cell lines (cell viability analysis), NIH-OVCAR-3", "setting": "[22]; NIH-OVCAR-3, repeated experiment", "value": 59.15}, {"measurement": "The results of antibiotic drug inhibiting cancer cell lines (cell viability analysis), HepG2", "setting": "[23]; HepG2", "value": 56.8}, {"measurement": "The results of antibiotic drug inhibiting cancer cell lines (cell viability analysis), PC-3", "setting": "[24]", "value": 32.11}]}
